Measured values taken from patent US5591741A, “Fungicidal spiroheterocyclic derivatives” (American Cyanamid Company, priority 1993, dated 1997).

What was measured:
Plasmopara viticola = experiment: Antisporulant activity against vine downy mildew (PVA); format: in vivo; conditions: vine leaves, antisporulant foliar spray, 600 ppm, 750 l/ha
Outline: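 Cabernet Sauvignon vines (~8 cm) inoculated on lower leaf surfaces with 5×10^4 zoosporangia/ml, held 24 h at 21° C high humidity then 24 h glasshouse. Infected leaves sprayed underside with 600 ppm compound in 1:1 water/acetone, 0.04% Tween 20, 750 l/ha; 96 h glasshouse, 24 h humidity. Sporulating leaf area rated versus control.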

[1] = tested on: Pseudocercosporella herpotrichoides; experiment: Activity against wheat eyespot in-vitro (PHI); format: cell-based; conditions: 10 ppm, 10 days, 20° C., mycelial growth
Outline: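 P. herpotrichoides mycelial fragments (5×10^4/ml) grown in half-strength PDB with compound at 10 ppm final, added from acetone. Incubated 10 days at 20 °C; mycelial growth rated against untreated or diluent controls.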

Leptosphaeria nodorum = experiment: Activity against wheat leafspot (LN); format: in vivo; conditions: direct therapeutic foliar spray, 600 ppm, 6-8 days
Outline: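 Wheat cv Norman at single-leaf stage spray-inoculated with 1.5×10^6 conidia/ml, held 24 h at high humidity, then sprayed therapeutically with test compound at 600 ppm. Kept 6-8 days at 22° C, 70% humidity; lesion density per leaf rated against untreated or diluent-sprayed controls.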

Rhizoctonia solani = experiment: Activity against Rhizoctonia in-vitro (RSI); format: cell-based; conditions: 10 ppm, 10 days, 20° C., mycelial growth
Outline: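 R. solani mycelial fragments (5×10^4/ml) in half-strength Potato Dextrose Broth with compound added from acetone to 10 ppm final. Mycelial growth assessed after 10 days at 20° C, rated against untreated or diluent control.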

Venturia inaequalis = experiment: Activity against apple scab in-vitro (VII); format: cell-based; conditions: 10 ppm, 10 days, 20° C., mycelial growth
Outline: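 Compound in acetone was tested at 10 ppm final in half-strength Potato Dextrose Broth inoculated with V. inaequalis mycelial fragments and spores at 5×10^4 propagules/ml. After 10 days at 20° C, mycelial growth was rated against untreated or diluent controls.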

Alternaria solani = experiment: Activity against tomato early blight (AS); format: in vivo; conditions: Table VI; tomato seedlings, contact prophylactic foliar spray, 4 days
Outline: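 Foliar contact prophylactic spray on tomato seedlings (cv Outdoor Girl, second true leaf expanded) in acetone/water 50:50 with 0.04% Tween 20; 24 h at 20° C, 40% R.H., then inoculation with 10^4 spores/ml A. solani conidia. Kept moist at 21° C; lesion cover rated 4 days post-inoculation against untreated or diluent-sprayed controls.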

Pyricularia oryzae = format: in vivo; conditions: rice seedlings, direct therapeutic foliar spray, 600 ppm, 4-5 days
Botrytis cinerea = experiment: Direct protectant activity against broad bean grey mould (BCB); format: in vivo; conditions: direct protectant foliar spray, 600 ppm, 4 days
Outline: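 Broad bean plants (cv The Sutton, two leaf pairs) sprayed on upper leaf surfaces at 600 ppm, then inoculated 24 h later with 10^6 conidia/ml. Kept 4 days at 22 °C, high humidity; disease control rated from % leaf area with lesions against untreated or diluent controls.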

[2] = tested on: Erysiphe graminis f.sp. hordei; experiment: Direct protectant activity against barley powdery mildew (EGP); format: in vivo; conditions: direct protectant foliar spray, 8 days
Outline: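 Barley seedlings (cv Golden Promise, single-leaf stage) were foliar-sprayed, held 24 h at 18 °C/40% RH, then dusted with mildew conidia. After 8 days at 18 °C/40% RH, sporulating leaf area was scored as a rating against untreated or diluent-sprayed controls.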

[3] = tested on: Erysiphe graminis f.sp. hordei; experiment: Activity against barley powdery mildew, direct therapeutic (EGT); format: in vivo; conditions: direct therapeutic foliar spray, 600 ppm, up to 7 days
Outline: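 Barley seedlings (cv. Golden Promise, single-leaf stage) were dusted with mildew conidia one day before a therapeutic foliar spray of 600 ppm compound. Plants were kept at 18 °C and 40% humidity for up to 7 days, and sporulating leaf area was rated against untreated or diluent-sprayed controls.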

Phytophthora infestans = format: in vivo; conditions: tomato, direct protectant foliar spray

## CCCC(CCC)NC1COC2(CCC(C(C)(C)C)CC2)C1 (stereo not shown) [Compound 99, 3-Hept-4-ylamino-8-t-butyl-1-oxaspiro(4,5)-decane]
Plasmopara viticola
  disease control rating PVA: 0 (less than 50% disease control)
[1]
  disease control rating PHI: 0 (less than 50% disease control)
Leptosphaeria nodorum
  disease control rating LN: 0 (less than 50% disease control)
Rhizoctonia solani
  disease control rating RSI: 0 (less than 50% disease control)
Venturia inaequalis
  disease control rating VII: 2 (greater than 80% disease control)
Alternaria solani
  disease control rating AS: 0 (less than 50% disease control)
Pyricularia oryzae
  disease control rating PO: 0 (less than 50% disease control)
Botrytis cinerea
  disease control rating BCB: 0 (less than 50% disease control)
[2]
  disease control rating EGP: 2 (greater than 80% disease control)
[3]
  disease control rating EGT: 2 (greater than 80% disease control)
Phytophthora infestans
  disease control rating PIP: 2 (greater than 80% disease control)

## CC(C)(C)C1CCC2(CC1)CC(NCCC1CCCCC1)CO2 (stereo not shown) [Compound 100]
Plasmopara viticola
  disease control rating PVA: 0 (less than 50% disease control)
[1]
  disease control rating PHI: 1 (about 50-80% disease control)
Leptosphaeria nodorum
  disease control rating LN: 0 (less than 50% disease control)
Rhizoctonia solani
  disease control rating RSI: 1 (about 50-80% disease control)
Venturia inaequalis
  disease control rating VII: 2 (greater than 80% disease control)
Alternaria solani
  disease control rating AS: 0 (less than 50% disease control)
Pyricularia oryzae
  disease control rating PO: 0 (less than 50% disease control)
Botrytis cinerea
  disease control rating BCB: 2 (greater than 80% disease control)
[2]
  disease control rating EGP: 2 (greater than 80% disease control)
[3]
  disease control rating EGT: 2 (greater than 80% disease control)
Phytophthora infestans
  disease control rating PIP: 2 (greater than 80% disease control)

## CCCCCC(C)NC1COC2(CCC(C(C)(C)C)CC2)C1 (stereo not shown) [Compound 101]
Plasmopara viticola
  disease control rating PVA: 0 (less than 50% disease control)
[1]
  disease control rating PHI: 1 (about 50-80% disease control)
Leptosphaeria nodorum
  disease control rating LN: 0 (less than 50% disease control)
Rhizoctonia solani
  disease control rating RSI: 0 (less than 50% disease control)
Venturia inaequalis
  disease control rating VII: 2 (greater than 80% disease control)
Alternaria solani
  disease control rating AS: 0 (less than 50% disease control)
Pyricularia oryzae
  disease control rating PO: 0 (less than 50% disease control)
Botrytis cinerea
  disease control rating BCB: 2 (greater than 80% disease control)
[2]
  disease control rating EGP: 2 (greater than 80% disease control)
[3]
  disease control rating EGT: 2 (greater than 80% disease control)
Phytophthora infestans
  disease control rating PIP: 0 (less than 50% disease control)

## CCCCC(CC)NC1COC2(CCC(C(C)(C)C)CC2)C1 (stereo not shown) [Compound 102]
Plasmopara viticola
  disease control rating PVA: 0 (less than 50% disease control)
[1]
  disease control rating PHI: 0 (less than 50% disease control)
Leptosphaeria nodorum
  disease control rating LN: 0 (less than 50% disease control)
Rhizoctonia solani
  disease control rating RSI: 0 (less than 50% disease control)
Venturia inaequalis
  disease control rating VII: 2 (greater than 80% disease control)
Alternaria solani
  disease control rating AS: 0 (less than 50% disease control)
Pyricularia oryzae
  disease control rating PO: 0 (less than 50% disease control)
Botrytis cinerea
  disease control rating BCB: 1 (about 50-80% disease control)
[2]
  disease control rating EGP: 2 (greater than 80% disease control)
[3]
  disease control rating EGT: 2 (greater than 80% disease control)
Phytophthora infestans
  disease control rating PIP: 0 (less than 50% disease control)

## C=CCN(CC=C)C1COC2(CCC(C(C)(C)C)CC2)C1 (stereo not shown) [Compound 103]
Plasmopara viticola
  disease control rating PVA: 0 (less than 50% disease control)
[1]
  disease control rating PHI: 0 (less than 50% disease control)
Leptosphaeria nodorum
  disease control rating LN: 0 (less than 50% disease control)
Rhizoctonia solani
  disease control rating RSI: 0 (less than 50% disease control)
Venturia inaequalis
  disease control rating VII: 1 (about 50-80% disease control)
Alternaria solani
  disease control rating AS: 0 (less than 50% disease control)
Pyricularia oryzae
  disease control rating PO: 0 (less than 50% disease control)
Botrytis cinerea
  disease control rating BCB: 2 (greater than 80% disease control)
[2]
  disease control rating EGP: 2 (greater than 80% disease control)
[3]
  disease control rating EGT: 2 (greater than 80% disease control)
Phytophthora infestans
  disease control rating PIP: 2 (greater than 80% disease control)

## CC(C)(C)C1CCC2(CC1)CC(NC1CCCCCC1)CO2 (stereo not shown) [Compound 104]
Plasmopara viticola
  disease control rating PVA: 0 (less than 50% disease control)
[1]
  disease control rating PHI: 0 (less than 50% disease control)
Leptosphaeria nodorum
  disease control rating LN: 1 (about 50-80% disease control)
Rhizoctonia solani
  disease control rating RSI: 0 (less than 50% disease control)
Venturia inaequalis
  disease control rating VII: 1 (about 50-80% disease control)
Alternaria solani
  disease control rating AS: 0 (less than 50% disease control)
Pyricularia oryzae
  disease control rating PO: 0 (less than 50% disease control)
Botrytis cinerea
  disease control rating BCB: 0 (less than 50% disease control)
[2]
  disease control rating EGP: 2 (greater than 80% disease control)
[3]
  disease control rating EGT: 2 (greater than 80% disease control)
Phytophthora infestans
  disease control rating PIP: 2 (greater than 80% disease control)

## CCCCCCC(C)NC1COC2(CCC(C(C)(C)C)CC2)C1 (stereo not shown) [Compound 105]
Plasmopara viticola
  disease control rating PVA: 0 (less than 50% disease control)
[1]
  disease control rating PHI: 2 (greater than 80% disease control)
Leptosphaeria nodorum
  disease control rating LN: 1 (about 50-80% disease control)
Rhizoctonia solani
  disease control rating RSI: 2 (greater than 80% disease control)
Venturia inaequalis
  disease control rating VII: 2 (greater than 80% disease control)
Alternaria solani
  disease control rating AS: 0 (less than 50% disease control)
Pyricularia oryzae
  disease control rating PO: 0 (less than 50% disease control)
Botrytis cinerea
  disease control rating BCB: 1 (about 50-80% disease control)
[2]
  disease control rating EGP: 2 (greater than 80% disease control)
[3]
  disease control rating EGT: 2 (greater than 80% disease control)
Phytophthora infestans
  disease control rating PIP: 0 (less than 50% disease control)

## CC(C)(C)CC(C)(C)NC1COC2(CCC(C(C)(C)C)CC2)C1 (stereo not shown) [Compound 106]
Plasmopara viticola
  disease control rating PVA: 0 (less than 50% disease control)
[1]
  disease control rating PHI: 0 (less than 50% disease control)
Leptosphaeria nodorum
  disease control rating LN: 0 (less than 50% disease control)
Rhizoctonia solani
  disease control rating RSI: 0 (less than 50% disease control)
Venturia inaequalis
  disease control rating VII: 1 (about 50-80% disease control)
Alternaria solani
  disease control rating AS: 0 (less than 50% disease control)
Pyricularia oryzae
  disease control rating PO: 0 (less than 50% disease control)
Botrytis cinerea
  disease control rating BCB: 0 (less than 50% disease control)
[2]
  disease control rating EGP: 2 (greater than 80% disease control)
[3]
  disease control rating EGT: 2 (greater than 80% disease control)
Phytophthora infestans
  disease control rating PIP: 2 (greater than 80% disease control)
